Reference: patent publication US5364944A, “Substituted benzoylbenzene-, biphenyl- and 2-oxazole- alkanoic acid compounds” (American Home Products Corporation, priority 1993, dated 1994)

Tests used:
[1] = test system: biosynthesis of LTB4 by isolated human neutrophils; assay: Inhibition of LTB4 biosynthesis by isolated human neutrophils (PMN); type: cell-based; conditions: Neutrophil, A23187 stimulated human PMN, read-out: % Inhibition of LTB4 Synthesis
Protocol: The ability of the compounds of the invention to inhibit the biosynthesis of LTB4 by isolated human neutrophils is evaluated in the following assay, which is carried out in this manner.
A leukocyte enriched blood sample obtained from a healthy donor is procured by leukophoresis using a Haemonetics model 30+ blood processor (Biological Specialties, Inc., Lansdale, Pa.). The top "platelet-rich" layer is removed after a low speed spin (35×g, 15 min, 25° C.) of the sample. The remaining cell suspension is centrigued (400×g, 10 min, 25° C.) to sediment the remaining cells. The supernatant is discarded and the cell pellet resuspended in 120 ml HBSS (without Ca^++ /Mg++). The cell suspension is subjected to ficoll-hypaque sedimentation (Histopaque 1077, 400×g, 30 min, 25° C.). Contaminating erythrocytes are lysed by hypotonic shock (1 min). The cells are then washed once with 40 ml of HBSS and resuspended with HBS S (without Ca^++ /Mg^++) to a concentration of 2.5×10^7 cells/ml for further use. Greater than 95% purity is obtained as assessed by microscopic examination.
One ml of human PMN (2.5×10^7 cells/ml) is incubated with vehicle or drugs (10 μl) for 10 min at 30° C. After preincubation, an equal volume of HBSS (1 ml) containing 2.4 mM CaCl2, 6 μM calcium ionophore A23187 and 50 μCi[^3 H]-acetate is then incubated at 30° C. for 15 minutes. An aliquot (100 μl) of the reaction mixture is taken out and mixed with 900 μl of 15% ethanol. LTB4 is extracted by using solid phase extraction on reverse phase C18 columns to remove excess [^3 H]-acetate and PAF. The C18 column is prewashed once with 2 ml of ethanol and water. The sample aliquot is acidified with 0.1 N HCl to pH3 before applying to the column. The column is then washed with 2 ml of water followed by 2 ml of 15% ethanol and 2 ml of petroleum ether to remove excess labeled acetate. The sample is eluted with 2 ml of ethyl acetate. The collected samples are dried with nitrogen and resuspended in 0.5 ml RIA buffer. The quantity of LTB4 in the sample is obtained from RIA determination.
Data presented are the mean +/- s.d. of the values relative to control A23187 stimulated cells for each experiment assayed in triplicate. Percent inhibition when used is calculated as:
% Inhibition=100-[(×.div.Control )×100]
Dose response analysis is performed by non-linear regression analysis for curve fitting and IC50 determination.

[2] = molecular target: T1, LTD4-induced contractions of isolated guinea pig trachea (Cavia porcellus, UniProt Q2NNR5); assay: In vitro isolated guinea pig trachea assay, LTD4 antagonist activity; set-up: species or system guinea pig (male Hartley); conditions: 1 × 10^-5 M
T1 construct: isolated guinea pig trachea; from tissue; host or cells: tracheal rings of male Hartley guinea pigs
T1 sequence (Q2NNR5 1-340): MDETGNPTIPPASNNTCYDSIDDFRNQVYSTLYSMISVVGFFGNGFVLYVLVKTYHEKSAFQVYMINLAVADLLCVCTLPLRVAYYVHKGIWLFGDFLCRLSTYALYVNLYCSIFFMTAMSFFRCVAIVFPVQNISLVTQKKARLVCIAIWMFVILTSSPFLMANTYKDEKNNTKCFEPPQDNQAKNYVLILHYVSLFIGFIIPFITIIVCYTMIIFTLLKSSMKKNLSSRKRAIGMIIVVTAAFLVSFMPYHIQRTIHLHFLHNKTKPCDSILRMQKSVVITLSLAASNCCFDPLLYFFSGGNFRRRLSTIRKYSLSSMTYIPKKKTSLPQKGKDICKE
Protocol: The LTD4 antagonist activity of the compounds of the invention is assessed in the in vitro isolated guinea pig trachea assay. This assay is carried out as follows: Male Hartley guinea pigs (350-400 g) are euthanized by a blow to the head, the neck is opened and the trachea removed. The trachea is maintained in aerated physiological salt solution, cleared of connective tissue and fat and cut into rings approximately 2 mm in width (usually containing two cartilaginous segments per ring). Two pieces of silk suture are then passed through the lumen of the tracheal ting and are tied around the cartilage, one on each side of the trachealis muscle. The tracheal ring is suspended between a glass hook and a force displacement transducer in a 10 ml organ bath for measurement of isometric tension. […] The tracheal rings are maintained at 2 g resting tension and equilibrated for 45 minutes (with frequent washing and readjustment of resting tension). The tracheal […] contracted by the addition of carbachol (3×10^-6 M), to determine tissue responsiveness and establish a reference contraction. On attainment of a stable level of contraction (approximately 30 minutes), the tissues are washed several times until baseline tension has been restored and the re-equilibrated for 30 minutes. The tissues are then incubated for 45 minutes with a test antiagonist (either 1×10^-6 M or 1×10^-5 M) or 10 μl of an appropriate solvent control (control, nontreated). One tissue in each group serves as the control. Twenty minutes prior to the construction of the LTD4 cumulative concentration-response curve, L-[…]×10^-2 M final bath concentration) is added to inhibit bioconversion of LTD4 to LTE4. Only one LTD4 concentration-response curve is constructed in each tissue. All responses to LTD4 in an individual tissue are measured as a percentage of the reference contraction of that tissue to carbachol. LTD4 antagonist activity is determined by comparison of the concentration response curves of LTD4 in the presence and absence of antagonist. Assessment of the relative rightward shift of the antagonist treated curve relative to the solvent (control) treated tissue is calculated as a concentration ratio (Eq. A) and used in subsequent calculations to derive an antagonist pKB value (Eqs. B and C). […] If a compound is found to be active and/or depress the maximal response to LTD4, then a range of concentrations of the test compound should be used generating multiple concentration ratios which would then be used to perform a Schild analysis, and determination of a pA2 value where appropriate.

- Kb [2]: > 10 µM
Compound: CC(C(=O)N(C)O)c1ccc(-c2ccc(OCc3csc(-c4ccccc4)n3)cc2)cc1 (stereo not drawn) [Example 21, N-Hydroxy-N,α-dimethyl-4'-[(2-phenylthiazol-4-yl)methoxy][1,1'-biphenyl]-4-acetamide]
- inhibition at 2.5 µM [1]: 91.2%
